Results published in patent publication US7183268B2, “2-amino-9-[(2-hydroxymethyl) cyclopropylidenemethyl] purine antiviral agents” (Wayne State University, priority 2002, dated 2007).
Where two headings read alike, the source gives them in different places.

Experiments:
Growing KB cells = assay: Cytotoxicity in growing KB cells (crystal violet staining); assay type: cell-based
Method: (§1) Cells and viruses. The routine growth and passage of KB cells was performed in monolayer cultures using minimal essential medium (MEM) with either Hanks salts [MEM(H)] or Earle salts [MEM(E)] supplemented with 10% calf serum. The sodium bicarbonate concentration was varied to meet the buffering capacity required. Cultures of diploid human foreskin fibroblasts (HFF) or MRC-5 cells were grown in medium consisting of MEM(E) with 10% fetal bovine serum. Cells were passaged at 1:2 to 1:10 dilutions according to conventional procedures by using 0.05% trypsin plus 0.02% EDTA in a HEPES buffered salt solution (HBS) (Shipman, C., Jr., Proc. Soc. Exp. Biol. 130:305–310 (1969)) as described previously. (Turk, S. R., et al., Antimicrob. Agents Chemother. 31:544–550 (1987). HFF and MRC-5 cells were passaged only at 1:2 dilutions.
(§2) Cytotoxicity assays. Two different assays were used to explore cytotoxicity of selected compounds as we have detailed previously. (i) Cytotoxicity produced in stationary HFF cells was determined by microscopic inspection of cells used in plaque assays which were not affected by the virus. (ii) The effect of compounds during two population doublings of KB cells was determined by crystal violet staining and spectrophotometric quantitation of dye eluted from stained cells. (Turk, S. R., et al., Antimicrob. Agents Chemother. 35:1060–1065 (1991).
(§3) Data Analysis. Dose-response relationships were constructed by linearly regressing the percent inhibition of parameters derived in the preceding sections against log drug concentrations. Fifty-percent inhibitory (IC50) concentrations were calculated from the regression lines. Samples containing positive controls (acyclovir for HSV-1, ganciclovir for HCMV, and 2-acetylpyridine thiosemicarbazone for cytotoxicity) were used in all assays. Results from sets of assays were rejected if inhibition by the positive control deviated from its mean response by >±1.5 standard deviations.

Stationary HFF cells = assay: Cytotoxicity in stationary HFF cells (microscopic inspection); assay type: cell-based, human
Method: as §1, §2, §3

HCMV = HCMV plaque reduction assay in HFF cells; assay type: cell-based
Method: as §1
(§4) Virological procedures. Stock HCMV was prepared by infecting HFF cells at a multiplicity of infection (m.o.i.) of <0.01 plaque-forming units (p.f.u.) per cell. Cell growth medium was changed every four days until cytopathology was evident in all cells (approximately 21 days). Supernatant fluids were retained as the virus stock. High titer HSV-1 stocks were prepared by infecting KB cells at an m.o.i. of <0.1 as detailed previously. (Turk, S. R., et al., Antimicrob. Agents Chemother. 31:544–550 (1987). Virus titers were determined using monolayer cultures of HFF cells for HCMV and monolayer cultures of BSC-1 cells for HSV-1 as described earlier. (Prichard, M. N. et al., J. Virol. Methods 28:101–106 (1990). Briefly, HFF or BSC-1 cells were planted as described above in 96-well cluster dishes and incubated overnight at 37° C. in a humidified 3% CO2–97% air atmosphere. The next day cultures were inoculated with HCMV or HSV-1 and serially diluted 1:3 across the remaining eleven columns of the 96-well plate. Cultures were incubated at 37° C. for 2 hr to permit virus adsorption and then virus inoculum was replaced with 0.2 mL of fresh medium. Cultures were incubated for seven days for HCMV, two or three days for HSV-1, medium was removed, and the cell sheets were stained with 0.1% crystal violet in 20% methanol. Plaques were enumerated under 20-fold magnification in wells having the dilution which gave 5 to 20 plaques per well. Virus titers were calculated according to the following formula: Titer (p.f.u./mL)=number of plaques×5×3^n; where n represents the nth dilution of the virus used to infect the well in which plaques were enumerated.
Assays for Antiviral Activity. (a) HCMV. The effect of compounds on the replication of HCMV has been measured using a plaque reduction assay. HFF cells in 24-well cluster dishes were infected with approximately 100 p.f.u. of HCMV per cm^2 cell sheet using the procedures detailed above. Following virus adsorption, compounds dissolved in growth medium were added to duplicate wells in three to six selected concentrations. Following incubation at 37° C. for 7 to 10 days, cell sheets were fixed, stained with crystal violet and microscopic plaques enumerated as described above. Drug effects were calculated as a percentage of reduction in number of plaques in the presence of each drug concentration compared to the number observed in the absence of drug. Ganciclovir (GCV) was used as a positive control in all experiments.
as §3

HSV-1 = HSV-1 ELISA in BSC-1 cells; assay type: cell-based
Method: as §1, §4
Assays for Antiviral Activity. (b) HSV-1. An enzyme-linked immunosorbent assay (ELISA) was employed to detect HSV-1. 96-well cluster dishes were planted with BSC-1 cells at 10,000 cells per well, in a total volume of 200 μL per well of MEM(E) plus 10% calf serum. After overnight incubation at 37° C., drug and HSV-1 was added at the rate of 100 PFU/well. ELISA plates were blocked with 200 μL per well of 10% calf serum and 0.05% tween in HBS. After incubation for 30 minutes, the blocking agent was rinsed two times with HBS-T. A 1:400 dilution of AP conjugated rabbit anti-HSV-1 antibody in HBS-F was added. Plates were sealed with adhesive sheet, and incubated on rocker for one hour at 37° C. Plates were developed in the dark with 100 μL per well of substrate solution containing p-nitrophenyl phosphate. Plates were read at 492 nm. Drug effects were calculated as a percentage of the reduction in virus in the presence of each drug concentration compared to the titer obtained in the absence of drug. Acyclovir was used as a positive control in all experiments.
as §3, with “Results from sets of assays were rejected if inhibition by the positive control deviated from its mean response by >±1.5 standard deviations.” left out

IC50 (HSV-1) | IC50 (HSV-1; Human alphaherpesvirus 1) | SMILES | IC50 (Growing KB cells) | IC50 (Stationary HFF cells) | IC50 (HCMV; HFF host cells) | IC50 (Stationary HFF cells; Homo sapiens) | IC50 (HCMV; Human betaherpesvirus 5, HFF host cells) | IC50 (Growing KB cells; Homo sapiens)
1 µM |  | CCCOc1nc(N)nc2c1ncn2/C=C1/C[C@@H]1CO [Compound 13a, (Z,S)-(+)-2-Amino-6-propoxy-9-[(2-hydroxymethyl)cyclopropylidenemethyl]purine] | > 100 µM | > 100 µM | 0.26 µM |  |  | 
1.5 µM |  | C=CCOc1nc(N)nc2c1ncn2/C=C1/C[C@@H]1CO [Compound 14, (Z,S)-(+)-2-Amino-6-allyloxy-9-[(2-hydroxymethyl)cyclopropylidenemethyl]purine] | > 100 µM | > 100 µM | 0.33 µM |  |  | 
25 µM |  | Nc1nc(NCc2ccccc2)c2ncn(/C=C3/C[C@@H]3CO)c2n1 [Compound 10, (Z,S)-(+)-2-Amino-6-benzylamino-9-[(2-hydroxymethyl)cyclopropylidenemethyl]purine] | > 100 µM | > 100 µM | > 100 µM |  |  | 
1 µM |  | CCCSc1nc(N)nc2c1ncn2/C=C1/C[C@@H]1CO [Compound 16a, (Z,S)-(+)-2-Amino-6-propylthio-9-[(2-hydroxymethyl)cyclopropylidenemethyl]purine] | > 100 µM | > 100 µM | 0.22 µM |  |  | 
15 µM |  | CC(C)Nc1nc(N)nc2c1ncn2/C=C1/C[C@@H]1CO [Compound 9, (Z,S)-(+)-2-Amino-6-isopropylamino-9-[(2-hydroxymethyl)-cyclopropylidenemethyl]purine] | > 100 µM | > 100 µM | 3.8 µM |  |  | 
 |  | Nc1nc(O)c2ncn(COC(CO)CO)c2n1 [Ganciclovir, reference compound] |  |  |  | > 100 µM | 4.1 µM | 
7 µM |  | CCCCCOc1nc(N)nc2c1ncn2/C=C1/C[C@@H]1CO [Compound 13b, (Z,S)-(+)-2-Amino-6-pentyloxy-9-[(2-hydroxymethyl)cyclopropylidenemethyl]purine] | > 100 µM | > 100 µM | 0.21 µM |  |  | 
> 100 µM |  | Nc1nc(NCCO)c2ncn(/C=C3/C[C@@H]3CO)c2n1 [Compound 12, (Z,S)-(+)-2-Amino-6-(2-hydroxy)ethylamino-9-[(2-hydroxymethyl)cyclopropylidenemethyl]purine] | > 100 µM | > 100 µM | 39 µM |  |  | 
 | 0.15 µM | Nc1nc2c(ncn2COCCO)c(=O)[nH]1 [Acyclovir, reference compound] |  |  |  |  |  | > 100 µM
2.5 µM |  | Nc1nc(NCC2CC2)c2ncn(/C=C3/C[C@@H]3CO)c2n1 [Compound 8, (Z,S)-(+)-2-Amino-6-cyclopropylmethylamino-9-[(2-hydroxymethyl)cyclopropylidenemethyl]purine] | > 100 µM | > 100 µM | 3.8 µM |  |  | 
7 µM |  | Nc1nc(OCC2CC2)c2ncn(/C=C3/C[C@@H]3CO)c2n1 [Compound 15, (Z,S)-(+)-2-Amino-6-cyclopropylmethoxy-9-[(2-hydroxymethyl)cyclopropylidenemethyl]purine] | > 100 µM | > 100 µM | 0.32 µM |  |  | 
4 µM |  | C=CCNc1nc(N)nc2c1ncn2/C=C1/C[C@@H]1CO [Compound 6, (Z,S)-(+)-2-Amino-6-allylamino-9-[(2-hydroxymethyl)cyclopropylidenemethyl]purine] | > 100 µM | > 100 µM | 1.8 µM |  |  | 
> 100 µM |  | Nc1nc(S)c2ncn(/C=C3/C[C@@H]3CO)c2n1 [Compound 17, (Z,S)-(+)-2-Amino-6-thio-9-[(2-hydroxymethyl)cyclopropylidenemethyl]purine] | > 100 µM | > 100 µM | 37 µM |  |  | 
7 µM |  | CCCCCSc1nc(N)nc2c1ncn2/C=C1/C[C@@H]1CO [Compound 16b, (Z,S)-(+)-2-Amino-6-pentylthio-9-[(2-hydroxymethyl)cyclopropylidenemethyl]purine] | > 100 µM | > 100 µM | 0.32 µM |  |  | 
15 µM |  | Nc1nc(NC2CCCCC2)c2ncn(/C=C3/C[C@@H]3CO)c2n1 [Compound 11, (Z,S)-(+)-2-Amino-6-cyclohexylamino-9-[(2-hydroxymethyl)-cyclopropylidenemethyl]purine] | > 100 µM | > 100 µM | > 100 µM |  |  | 
35 µM |  | Nc1ncc2ncn(/C=C3/C[C@@H]3CO)c2n1 [Compound 18, (Z,S)-(+)-2-Amino-9-[(2-hydroxymethyl)cyclopropylidenemethyl]purine] | > 100 µM | > 100 µM | > 100 µM |  |  | 
6 µM |  | C#CCNc1nc(N)nc2c1ncn2/C=C1/C[C@@H]1CO [Compound 7, (Z,S)-(+)-2-Amino-6-propargylamino-9-[(2-hydroxymethyl)-cyclopropylidenemethyl]purine] | > 100 µM | > 100 µM | 3.5 µM |  |  | 
